{
  "source": "BigSolDB 2.1",
  "data": [
    {"smiles": "NC(=O)N/N=C/c1ccc([N+](=O)[O-])o1", "values": [
      {"measurement": "solubility (mole fraction)", "setting": "in DMF, 278.15 K", "value": 0.0219},
      {"measurement": "solubility (mole fraction)", "setting": "in DMF, 283.15 K", "value": 0.0227},
      {"measurement": "solubility (mole fraction)", "setting": "in DMF, 288.15 K", "value": 0.0235},
      {"measurement": "solubility (mole fraction)", "setting": "in DMF, 293.15 K", "value": 0.0246},
      {"measurement": "solubility (mole fraction)", "setting": "in DMF, 298.15 K", "value": 0.0265},
      {"measurement": "solubility (mole fraction)", "setting": "in DMF, 303.15 K", "value": 0.028},
      {"measurement": "solubility (mole fraction)", "setting": "in DMF, 308.15 K", "value": 0.0289},
      {"measurement": "solubility (mole fraction)", "setting": "in DMF, 313.15 K", "value": 0.0305},
      {"measurement": "solubility (mole fraction)", "setting": "in acetone, 278.15 K", "value": 0.000298},
      {"measurement": "solubility (mole fraction)", "setting": "in acetone, 283.15 K", "value": 0.000345},
      {"measurement": "solubility (mole fraction)", "setting": "in acetone, 288.15 K", "value": 0.000392},
      {"measurement": "solubility (mole fraction)", "setting": "in acetone, 293.15 K", "value": 0.000443},
      {"measurement": "solubility (mole fraction)", "setting": "in acetone, 298.15 K", "value": 0.000512},
      {"measurement": "solubility (mole fraction)", "setting": "in acetone, 303.15 K", "value": 0.000568},
      {"measurement": "solubility (mole fraction)", "setting": "in acetone, 308.15 K", "value": 0.000647},
      {"measurement": "solubility (mole fraction)", "setting": "in acetone, 313.15 K", "value": 0.000738},
      {"measurement": "solubility (mole fraction)", "setting": "in acetonitrile, 278.15 K", "value": "8.46e-05"},
      {"measurement": "solubility (mole fraction)", "setting": "in acetonitrile, 283.15 K", "value": 0.000103},
      {"measurement": "solubility (mole fraction)", "setting": "in acetonitrile, 288.15 K", "value": 0.000123},
      {"measurement": "solubility (mole fraction)", "setting": "in acetonitrile, 293.15 K", "value": 0.000146},
      {"measurement": "solubility (mole fraction)", "setting": "in acetonitrile, 298.15 K", "value": 0.000176},
      {"measurement": "solubility (mole fraction)", "setting": "in acetonitrile, 303.15 K", "value": 0.000211},
      {"measurement": "solubility (mole fraction)", "setting": "in acetonitrile, 308.15 K", "value": 0.000247},
      {"measurement": "solubility (mole fraction)", "setting": "in acetonitrile, 313.15 K", "value": 0.000288},
      {"measurement": "solubility (mole fraction)", "setting": "in ethanol, 278.15 K", "value": "6.97e-05"},
      {"measurement": "solubility (mole fraction)", "setting": "in ethanol, 283.15 K", "value": "8.33e-05"},
      {"measurement": "solubility (mole fraction)", "setting": "in ethanol, 288.15 K", "value": 0.0001},
      {"measurement": "solubility (mole fraction)", "setting": "in ethanol, 293.15 K", "value": 0.000121},
      {"measurement": "solubility (mole fraction)", "setting": "in ethanol, 298.15 K", "value": 0.000143},
      {"measurement": "solubility (mole fraction)", "setting": "in ethanol, 303.15 K", "value": 0.000175},
      {"measurement": "solubility (mole fraction)", "setting": "in ethanol, 308.15 K", "value": 0.000213},
      {"measurement": "solubility (mole fraction)", "setting": "in ethanol, 313.15 K", "value": 0.000253},
      {"measurement": "solubility (mole fraction)", "setting": "in formamide, 278.15 K", "value": 0.00169},
      {"measurement": "solubility (mole fraction)", "setting": "in formamide, 283.15 K", "value": 0.00191},
      {"measurement": "solubility (mole fraction)", "setting": "in formamide, 288.15 K", "value": 0.00208},
      {"measurement": "solubility (mole fraction)", "setting": "in formamide, 293.15 K", "value": 0.00239},
      {"measurement": "solubility (mole fraction)", "setting": "in formamide, 298.15 K", "value": 0.00267},
      {"measurement": "solubility (mole fraction)", "setting": "in formamide, 303.15 K", "value": 0.00298},
      {"measurement": "solubility (mole fraction)", "setting": "in formamide, 308.15 K", "value": 0.00334},
      {"measurement": "solubility (mole fraction)", "setting": "in formamide, 313.15 K", "value": 0.00364},
      {"measurement": "solubility (mole fraction)", "setting": "in isopropanol, 278.15 K", "value": "7.04e-05"},
      {"measurement": "solubility (mole fraction)", "setting": "in isopropanol, 283.15 K", "value": "9.57e-05"},
      {"measurement": "solubility (mole fraction)", "setting": "in isopropanol, 288.15 K", "value": 0.000113},
      {"measurement": "solubility (mole fraction)", "setting": "in isopropanol, 293.15 K", "value": 0.000131},
      {"measurement": "solubility (mole fraction)", "setting": "in isopropanol, 298.15 K", "value": 0.000169},
      {"measurement": "solubility (mole fraction)", "setting": "in isopropanol, 303.15 K", "value": 0.000216},
      {"measurement": "solubility (mole fraction)", "setting": "in isopropanol, 308.15 K", "value": 0.000262},
      {"measurement": "solubility (mole fraction)", "setting": "in isopropanol, 313.15 K", "value": 0.000344},
      {"measurement": "solubility (mole fraction)", "setting": "in methanol, 278.15 K", "value": 0.000148},
      {"measurement": "solubility (mole fraction)", "setting": "in methanol, 283.15 K", "value": 0.000172},
      {"measurement": "solubility (mole fraction)", "setting": "in methanol, 288.15 K", "value": 0.000201},
      {"measurement": "solubility (mole fraction)", "setting": "in methanol, 293.15 K", "value": 0.000233},
      {"measurement": "solubility (mole fraction)", "setting": "in methanol, 298.15 K", "value": 0.000282},
      {"measurement": "solubility (mole fraction)", "setting": "in methanol, 303.15 K", "value": 0.000326},
      {"measurement": "solubility (mole fraction)", "setting": "in methanol, 308.15 K", "value": 0.000387},
      {"measurement": "solubility (mole fraction)", "setting": "in methanol, 313.15 K", "value": 0.00044},
      {"measurement": "solubility (mole fraction)", "setting": "in n-propanol, 278.15 K", "value": "8.53e-05"},
      {"measurement": "solubility (mole fraction)", "setting": "in n-propanol, 283.15 K", "value": 0.000106},
      {"measurement": "solubility (mole fraction)", "setting": "in n-propanol, 288.15 K", "value": 0.00013},
      {"measurement": "solubility (mole fraction)", "setting": "in n-propanol, 293.15 K", "value": 0.000149},
      {"measurement": "solubility (mole fraction)", "setting": "in n-propanol, 298.15 K", "value": 0.000188},
      {"measurement": "solubility (mole fraction)", "setting": "in n-propanol, 303.15 K", "value": 0.000236},
      {"measurement": "solubility (mole fraction)", "setting": "in n-propanol, 308.15 K", "value": 0.000285},
      {"measurement": "solubility (mole fraction)", "setting": "in n-propanol, 313.15 K", "value": 0.000368},
      {"measurement": "solubility (mole fraction)", "setting": "in water, 278.15 K", "value": "1.31e-05"},
      {"measurement": "solubility (mole fraction)", "setting": "in water, 283.15 K", "value": "1.62e-05"},
      {"measurement": "solubility (mole fraction)", "setting": "in water, 288.15 K", "value": "1.88e-05"},
      {"measurement": "solubility (mole fraction)", "setting": "in water, 293.15 K", "value": "2.29e-05"},
      {"measurement": "solubility (mole fraction)", "setting": "in water, 298.15 K", "value": "2.92e-05"},
      {"measurement": "solubility (mole fraction)", "setting": "in water, 303.15 K", "value": "3.66e-05"},
      {"measurement": "solubility (mole fraction)", "setting": "in water, 308.15 K", "value": "4.5e-05"},
      {"measurement": "solubility (mole fraction)", "setting": "in water, 313.15 K", "value": "5.89e-05"}
    ]}
  ]
}
